Assay results from ChEMBL document CHEMBL1151930, “Physicochemical determinants of human renal clearance” (J Med Chem, 2009).

Assay: clinical
Conditions: human, in vivo

Compound	CL renal
COc1ccc2cc1Oc1cc3c(cc1OC)CC[N+](C)(C)[C@H]3Cc1ccc(cc1)Oc1c(OC)c(OC)cc3c1[C@@H](C2)[N+](C)(C)CC3.[I-].[I-] [METOCURINE IODIDE]	0.52 mL/min/kg
Cc1cccc(C)c1NC(=O)NCCCNC(C)C	2.3 mL/min/kg
C[C@@H](O)[C@H]1C(=O)N2C(C(=O)[O-])=C(SC3Cn4cnc[n+]4C3)[C@H](C)[C@H]12 (stereo not given in full) [BIAPENEM]	1.23 mL/min/kg
CCCCNc1cc(C(=O)O)cc(S(N)(=O)=O)c1Oc1ccccc1 [BUMETANIDE]	0.85 mL/min/kg
COc1cc2c3cc1Oc1cc(ccc1O)C[C@@H]1c4c(cc(OC)c(O)c4Oc4ccc(cc4)C[C@@H]3N(C)CC2)CC[N+]1(C)C.[Cl-]	2.14 mL/min/kg
CCCCCNC(=N)N/N=C/c1c[nH]c2ccc(OC)cc12 [TEGASEROD]	0.36 mL/min/kg
CC(=O)NC[C@H]1CN(c2ccc(N3CCOCC3)c(F)c2)C(=O)O1 [LINEZOLID]	0.6 mL/min/kg
Cc1[nH]c(=O)c(C#N)cc1-c1ccncc1 [MILRINONE]	5 mL/min/kg
O=c1[nH]cnc2c1ncn2[C@H]1CC[C@@H](CO)O1 [DIDANOSINE]	6.8 mL/min/kg
CN(C)c1cc(NC(=O)CNC(C)(C)C)c(O)c2c1C[C@H]1C[C@H]3[C@H](N(C)C)C(O)=C(C(N)=O)C(=O)[C@@]3(O)C(O)=C1C2=O [TIGECYCLINE]	0.57 mL/min/kg
Sc1ncnc2nc[nH]c12 [MERCAPTOPURINE ANHYDROUS]	0.68 mL/min/kg
CO/N=C(\C(=O)N[C@@H]1C(=O)N2C(C(=O)O)=C(COC(N)=O)CS[C@H]12)c1ccco1 [CEFUROXIME]	2.11 mL/min/kg
CCC(CC)O[C@@H]1C=C(C(=O)O)C[C@H](N)[C@H]1NC(C)=O [OSELTAMIVIR CARBOXYLATE]	4.46 mL/min/kg
NC[C@H]1O[C@H](O[C@H]2[C@H](O)[C@@H](O[C@H]3O[C@H](CO)[C@@H](O)[C@H](N)[C@H]3O)[C@H](N)C[C@@H]2N)[C@H](N)C[C@@H]1O [TOBRAMYCIN]	1.19 mL/min/kg
CN(C)CCCN1c2ccccc2Sc2ccc(Cl)cc21 [CHLORPROMAZINE]	0.16 mL/min/kg
C=C1CC[C@@]2(O)[C@H]3Cc4ccc(O)c5c4[C@@]2(CCN3CC2CC2)[C@H]1O5	0.75 mL/min/kg
Cc1onc(-c2c(F)cccc2Cl)c1C(=O)N[C@@H]1C(=O)N2[C@@H]1SC(C)(C)[C@@H]2C(=O)O [FLOXACILLIN]	1.56 mL/min/kg
CCOc1ccccc1OCCN[C@H](C)Cc1ccc(OC)c(S(N)(=O)=O)c1 [TAMSULOSIN]	0.08 mL/min/kg
CCNCC(O)c1cccc(O)c1 (stereo not given) [ETILEFRINE]	3.96 mL/min/kg
OCCN1C[C@H](O)[C@@H](O)[C@H](O)[C@H]1CO [MIGLITOL]	1.7 mL/min/kg
CCN(CC)CCCC(C)Nc1ccnc2cc(Cl)ccc12 (stereo not given) [CHLOROQUINE]	2.3 mL/min/kg
CC(=O)Nc1nnc(S(N)(=O)=O)s1 [ACETAZOLAMIDE]	0.64 mL/min/kg
CCC1(c2ccccc2)C(=O)NC(=O)NC1=O [PHENOBARBITAL]	0.02 mL/min/kg
C[C@H]1c2cccc(O)c2C(=O)C2=C(O)[C@]3(O)C(=O)C(C(N)=O)=C(O)[C@@H](N(C)C)[C@@H]3[C@@H](O)[C@@H]21.O [DOXYCYCLINE]	0.19 mL/min/kg
CCN(C)C(=O)Oc1cccc([C@H](C)N(C)C)c1 [RIVASTIGMINE]	0.12 mL/min/kg
COc1c(N2CCNC(C)C2)c(F)cc2c(=O)c(C(=O)O)cn(C3CC3)c12 (stereo not given) [GATIFLOXACIN]	2.3 mL/min/kg
O=C(N[C@H](CO)[C@H](O)c1ccc([N+](=O)[O-])cc1)C(Cl)Cl [CHLORAMPHENICOL]	0.24 mL/min/kg

Compound	CL renal
Clc1ccc2nsnc2c1NC1=NCCN1 [TIZANIDINE]	0.33 mL/min/kg
CN[C@H](CC(C)C)C(=O)N[C@H]1C(=O)N[C@@H](CC(N)=O)C(=O)N[C@H]2C(=O)N[C@H]3C(=O)N[C@H](C(=O)N[C@H](C(=O)O)c4cc(O)cc(O)c4-c4cc3ccc4O)[C@H](O)c3ccc(c(Cl)c3)Oc3cc2cc(c3O[C@@H]2O[C@H](CO)[C@@H](O)[C@H](O)[C@H]2O[C@H]2C[C@](C)(N)[C@H](O)[C@H](C)O2)Oc2ccc(cc2Cl)[C@H]1O [VANCOMYCIN]	1.03 mL/min/kg
CN(C)[C@@H]1C(O)=C(C(N)=O)C(=O)[C@@]2(O)C(O)=C3C(=O)c4c(O)cccc4[C@@](C)(O)[C@H]3C[C@@H]12 [TETRACYCLINE]	0.9 mL/min/kg
C[C@](N)(Cc1ccc(O)c(O)c1)C(=O)O [METHYLDOPA]	2.1 mL/min/kg
C[C@H]1O[C@@H](O[C@H]2[C@@H](O)C[C@H](O[C@H]3[C@@H](O)C[C@H](O[C@H]4CC[C@@]5(C)[C@H](CC[C@@H]6[C@@H]5C[C@@H](O)[C@]5(C)[C@@H](C7=CC(=O)OC7)CC[C@]65O)C4)O[C@@H]3C)O[C@@H]2C)C[C@H](O)[C@@H]1O [DIGOXIN]	1.7 mL/min/kg
CC(C)=CCN1CC[C@]2(C)c3cc(O)ccc3C[C@H]1[C@H]2C [(+)-PENTAZOCINE]	2.99 mL/min/kg
O=C(O)[C@H]1/C(=C/CO)O[C@@H]2CC(=O)N21 [CLAVULANIC ACID]	1.33 mL/min/kg
C[C@H]1C[C@@H]2[C@H]([C@@H](O)C[C@@]3(C)[C@H]2CC[C@]3(O)C(=O)CO)[C@@]2(C)C=CC(=O)C=C12 [METHYLPREDNISOLONE]	0.3 mL/min/kg
C[C@@H](CN1CC(=O)NC(=O)C1)N1CC(=O)NC(=O)C1 [DEXRAZOXANE]	1.4 mL/min/kg
CCOC(=O)Nc1ccc(NCc2ccc(F)cc2)nc1N [FLUPIRTINE]	0.27 mL/min/kg
COCCc1ccc(OCC(O)CNC(C)C)cc1 (stereo not given) [METOPROLOL]	0.65 mL/min/kg
CO/N=C(\C(=O)N[C@@H]1C(=O)N2C(C(=O)O)=C(C)CS[C@H]12)c1csc(N)n1	1.5 mL/min/kg
Cc1nc2n(c(=O)c1CCN1CCC(c3noc4cc(F)ccc34)CC1)CCCC2 [RISPERIDONE]	0.18 mL/min/kg
COc1cccc2c1C(=O)c1c(O)c3c(c(O)c1C2=O)C[C@@](O)(C(=O)CO)C[C@@H]3O[C@H]1C[C@H](N)[C@H](O)[C@H](C)O1 [DOXORUBICIN]	1.83 mL/min/kg
COc1cccc(OC)c1C(=O)N[C@@H]1C(=O)N2[C@@H]1SC(C)(C)[C@@H]2C(=O)O [METHICILLIN]	4.2 mL/min/kg
O=C(O)P(=O)(O)O [FOSCARNET]	1.68 mL/min/kg
CCC(C)(C)NCC(O)COc1ccccc1C(=O)CCc1ccccc1 (stereo not given) [DIPRAFENONE]	0.04 mL/min/kg
CC1(C)S[C@@H]2[C@H](NC(=O)Cc3ccccc3)C(=O)N2[C@H]1C(=O)O [PENICILLIN G]	5 mL/min/kg
Cc1ncc([N+](=O)[O-])n1CCO [METRONIDAZOLE]	0.19 mL/min/kg
CN(C)CCCC1(c2ccc(F)cc2)OCc2cc(C#N)ccc21 (stereo not given) [CITALOPRAM]	0.45 mL/min/kg
Nc1cc(-c2ccncc2)c[nH]c1=O [INAMRINONE]	3.1 mL/min/kg
N[C@@H]1CN(c2c(F)cc3c(=O)c(C(=O)O)cn([C@@H]4C[C@@H]4F)c3c2Cl)CC12CC2 [SITAFLOXACIN ANHYDROUS]	2.8 mL/min/kg
CC(C)[C@H]1CC[C@H](C(=O)N[C@H](Cc2ccccc2)C(=O)O)CC1 [NATEGLINIDE]	0.1 mL/min/kg
CCCCc1nc(Cl)c(CO)n1Cc1ccc(-c2ccccc2-c2nn[nH]n2)cc1 [LOSARTAN]	0.9 mL/min/kg
CCC[C@@H]1C[C@@H](C(=O)N[C@@H]([C@H]2O[C@H](SC)[C@H](O)[C@@H](O)[C@H]2O)[C@H](C)Cl)N(C)C1 [CLINDAMYCIN]	0.62 mL/min/kg
CO/N=C(\C(=O)N[C@@H]1C(=O)N2C(C(=O)O)=CCS[C@H]12)c1csc(N)n1 [CEFTIZOXIME]	1.68 mL/min/kg
Nc1ncnc2c1ncn2CCOCP(=O)(O)O [ADEFOVIR]	3.33 mL/min/kg

Compound	CL renal
CCCC(C)C1(CC)C(=O)NC(=S)NC1=O (stereo not given) [THIOPENTAL]	0.08 mL/min/kg
Cc1cccc(Nc2ccncc2S(=O)(=O)NC(=O)NC(C)C)c1 [TORSEMIDE]	0.13 mL/min/kg
c1ccc(C2(N3CCCCC3)CCCCC2)cc1 [PHENCYCLIDINE]	0.82 mL/min/kg
Cc1ccsc1C(=CCCN1CCC[C@@H](C(=O)O)C1)c1sccc1C [TIAGABINE]	0.03 mL/min/kg
CCCc1cc(=O)[nH]c(=S)[nH]1 [PROPYLTHIOURACIL]	0.04 mL/min/kg
Cc1cccc(C)c1NC(=O)C(C)N (stereo not given) [TOCAINIDE]	0.8 mL/min/kg
Cn1c(=O)c2c(ncn2C)n(C)c1=O [CAFFEINE]	0.02 mL/min/kg
CC1(C)S[C@@H]2[C@H](NC(=O)COc3ccccc3)C(=O)N2[C@H]1C(=O)O [PENICILLIN V]	1.74 mL/min/kg
CSc1ccc(C(=O)c2[nH]c(=O)[nH]c2C)cc1 [ENOXIMONE]	0.1 mL/min/kg
NC12CC3CC(CC(C3)C1)C2 [AMANTADINE]	4.8 mL/min/kg
O=C1CN=C(c2ccccc2Cl)c2cc([N+](=O)[O-])ccc2N1 [CLONAZEPAM]	0.01 mL/min/kg
CCCCC(=O)N(Cc1ccc(-c2ccccc2-c2nnn[nH]2)cc1)[C@H](C(=O)O)C(C)C	0.14 mL/min/kg
Nc1ccn(C[C@@H](CO)OCP(=O)(O)O)c(=O)n1.O.O [CIDOFOVIR]	2.25 mL/min/kg
N[C@@H](Cc1ccc(O)c(O)c1)C(=O)O [LEVODOPA]	0.23 mL/min/kg
CC1=C(C(=O)O)N2C(=O)[C@@H](NC(=O)[C@H](N)C3=CCC=CC3)[C@H]2SC1 [CEPHRADINE]	3.14 mL/min/kg
Nc1ccn([C@@H]2O[C@H](CO)[C@@H](O)C2(F)F)c(=O)n1 [GEMCITABINE]	3.2 mL/min/kg
CC[C@H]1OC(=O)[C@H](C)[C@@H](O[C@H]2C[C@@](C)(OC)[C@@H](O)[C@H](C)O2)[C@H](C)[C@@H](O[C@@H]2O[C@H](C)C[C@H](N(C)C)[C@H]2O)[C@](C)(O)C[C@@H](C)C(=O)[C@H](C)[C@@H](O)[C@]1(C)O [ERYTHROMYCIN]	0.34 mL/min/kg
C[C@H]1C[C@H]2[C@@H]3CCC4=CC(=O)C=C[C@]4(C)[C@@]3(F)[C@@H](O)C[C@]2(C)[C@@]1(O)C(=O)CO [BETAMETHASONE]	0.14 mL/min/kg
C[C@@H]1C[C@H]2[C@@H]3CCC4=CC(=O)C=C[C@]4(C)[C@@]3(F)[C@@H](O)C[C@]2(C)[C@@]1(O)C(=O)CO [DEXAMETHASONE]	0.09 mL/min/kg
Nc1ncn([C@H]2C[C@H](O)[C@@H](CO)O2)c(=O)n1 [DECITABINE]	1.3 mL/min/kg
Cc1cn([C@H]2C[C@H](N=[N+]=[N-])[C@@H](CO)O2)c(=O)[nH]c1=O [ZIDOVUDINE]	5.67 mL/min/kg
CCCCc1ncc(/C=C(\Cc2cccs2)C(=O)O)n1Cc1ccc(C(=O)O)cc1 [EPROSARTAN]	0.7 mL/min/kg
Nc1nc(Cl)nc2c1ncn2[C@H]1C[C@H](O)[C@@H](CO)O1 [CLADRIBINE]	3.92 mL/min/kg
CCC1(c2cccc(O)c2)CCCCN(C)C1 (stereo not given) [MEPTAZINOL]	1.4 mL/min/kg
CC(C)NCC(O)COc1ccc(COCCOC(C)C)cc1 (stereo not given) [BISOPROLOL]	2.28 mL/min/kg
CCc1nn(CCCN2CCN(c3cccc(Cl)c3)CC2)c(=O)n1CCOc1ccccc1 [NEFAZODONE]	0.38 mL/min/kg
